Values quoted from earlier work in US20140271892A1, “PHENYLEPHRINE RESINATE PARTICLES HAVING GOOD AUC” (McNeil-PPC, Inc., priority 2013, published 2014).

Experiments:
[1] = therapeutic dose
[2] = 30 mg dose administered orally over eight hours

Row | excreted unchanged in the urine [1] | metabolized to m-hydroxy-phenylglycol-sulfate [2] | metabolized to m-hydroxymandelic acid [2] | metabolized to phenylephrine-glucuronide [2] | metabolized to phenylephrine-sulfate [2] | SMILES
1 | Less than 9 % of a therapeutic dose | – | – | – | – | CC(=O)Nc1ccc(O)cc1 [acetaminophen, Acetaminophen]
2 | – | 6 % of the dose | 30 % of the dose | 12 % of the dose | 47 % of the dose | CNC[C@H](O)c1cccc(O)c1 [phenylephrine, (R)-1-(3-hydroxyphenyl)-2-methylaminoethanol]
